Results reported in the supplement of paper PMC8837787.

Test system: Saccharomyces cerevisiae ABC16-Green Monster
Test: growth inhibition at single dose (up to 150 µM), below the 70% cut-off for dose-response; higher = more potent
Conditions: 18 h; 30 °C; YPD
How it was run: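 Values are percent growth inhibition of drug-sensitive S. cerevisiae ABC16-Green Monster cells. Cells grown overnight in YPD at 30 °C were diluted to log phase (OD600 0.1–0.2), and each library compound was added at a single dose of 150 µM to 200 µl culture per well in 96-well plates, in biological duplicates, beside untreated cultures. OD600 was read at 0 h and after 18 h at 30 °C, and compounds under 70% in both replicates were not taken to dose-response.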

| Compound | growth inhibition at single dose |
| --- | --- |
| CNC1C(OC2C(OC3C(O)C(O)C(NC(=N)N)C(O)C3NC(=N)N)OC(C)C2(O)C=O)OC(CO)C(O)C1O (stereo not drawn) | < 70% |
| FC(F)(F)c1nnc2ccc(Cl)nn12 | < 70% |
| O=C(Nc1ncccc1O)c1ccc(N2CCOCC2)nc1 | < 70% |
| CC(C)(C)c1ccc(C(=O)Nc2ncccc2O)cc1 | < 70% |
| CNc1snc(C)c1C(=O)OCCOc1ccccc1C(C)=O | < 70% |
| COc1ccc2c(c1)CCCC21NC(=O)N(Cc2nc3ccccc3s2)C1=O (stereo not drawn) | < 70% |
| CCc1c(C)nc(-n2nc(C)cc2NC(=O)c2ccccc2SC)[nH]c1=O | < 70% |
| Cc1nn(-c2ccc(F)cc2)c(Cl)c1/C=C1\C(=O)Nc2ccccc21 | < 70% |
| O=C(NCc1cc(Cl)cc(Cl)c1)c1c(C(F)(F)F)nc2ccccn12 | < 70% |
| O=C(O)c1c2c(nc3ccccc13)/C(=C/c1ccccc1Cl)CC2 | < 70% |
| O=C(NC1=NCCS1)c1sc2cc(F)ccc2c1Cl | < 70% |
| COc1cc(CNC(=O)Nc2nc3ccccc3s2)cc(OC)c1OC | < 70% |
| Cc1cc(C(=O)Oc2ccccc2C(N)=O)c(C)n1Cc1ccco1 | < 70% |
| OC(c1cn2cc(-c3ccccc3)nc2s1)(C(F)(F)F)C(F)(F)F | < 70% |
| Cc1c(CN2CCN(c3ccccn3)CC2)noc1-c1ccc(F)cc1 | < 70% |
| CC(C)Cc1ccc(C(C)c2nn3c(-c4ccco4)nnc3s2)cc1 (stereo not drawn) | < 70% |
| COC(=O)c1cccc2oc(-c3cccc(OC)c3NC(=O)c3cc(-c4ccccc4)on3)nc12 | < 70% |
| Nc1nc(Nc2cccc(F)c2)nc2ccccc12 | < 70% |
| Cc1nc(C(=O)N2CCc3c(c(C(=O)NC4CCCC4)nn3CC(C)C)C2)cs1 | < 70% |
| COc1ccnc(Nc2ccc3c(c2)nc2n3CCCCC2)n1 | < 70% |
| COc1ccc(C2=NN(C3CCCCCC3)C(=O)[C@@H]3CC=CC[C@H]23)cc1OCCCCOc1ccc(-c2nn[nH]n2)cc1 | < 70% |
| COc1ccc(-c2csc3ncnc(NCC(=O)NC(C)C)c23)cc1 | < 70% |
| O=C(NCCCc1nc2ccccc2[nH]1)c1[nH]nc2ccccc12 | < 70% |
| Cc1ccc(-n2c(C)cc(C(=O)COC(=O)c3ccc[nH]c3=O)c2C)cc1C | < 70% |

| Compound | growth inhibition at single dose |
| --- | --- |
| Cc1ccccc1CN1CCC(O)(c2ccc(Cl)c(C(F)(F)F)c2)CC1 | < 70% |
| O=C(Nc1ccc(N2CCN(c3ncccc3C(F)(F)F)CC2)nc1)c1cccs1 | < 70% |
| CCC(C)NC(=O)c1ccc(NC(=O)C2(c3ccccc3)CCCC2)cc1 (stereo not drawn) | < 70% |
| CCc1c(C)c(=N)c2ccccc2n1C | < 70% |
| Cc1cc(C(=O)C(C)Sc2nnnn2C2CC2)c(C)n1-c1ccccc1 (stereo not drawn) | < 70% |
| CCC(=O)Nc1nnc(Cc2ccc(OC)c(OC)c2)s1 | < 70% |
| CC1=Nc2ccc(Cl)cc2C(O)(c2ccc(C)cc2)N1CCN1CCCCC1 (stereo not drawn) | < 70% |
| CN(C)c1ccc(C(=O)Nc2cnc3ccccc3c2)cc1 | < 70% |
| Cc1sc(NC(=O)c2ccccc2)c(C(c2cccs2)N2CCN(c3ccccc3)CC2)c1C (stereo not drawn) | < 70% |
| CCN(CC)S(=O)(=O)c1ccc(Cl)c(C(=O)Nc2ccc3nc(C)sc3c2)c1 | < 70% |
| Nn1c(SCC(=O)c2c[nH]c3ccccc23)nnc1C(F)(F)F | < 70% |
| CC(NCC(=O)N1c2ccc(S(N)(=O)=O)cc2CC1C)C1CC2CCC1C2 (stereo not drawn) | < 70% |
| c1ccc(Cn2c(N=Nc3c(Nc4ccccc4)ccc4ccccc34)nc3ccccc32)cc1 | < 70% |
| Cc1cc(C=C2SC(=Nc3ccccc3)N(C3CCCC3)C2=O)c(C)n1-c1ccc(Cl)cc1 | < 70% |
| Cc1ccc2nc(C)cc(Nc3cccc(C(F)(F)F)c3)c2c1 | < 70% |
| N#C/C(=N\Nc1cc(C(F)(F)F)ccc1OCC(F)(F)F)S(=O)(=O)c1ccccc1 | < 70% |
| CCS(=O)(=O)N(Cc1ccco1)Cc1cc2ccc(C)cc2nc1O | < 70% |
| O=c1cc(CN2CCCCCC2)nc2sccn12 | < 70% |
| Cc1ccc2c(C)nc(Nc3nc(C)cc(-c4ccccc4)n3)nc2c1 | < 70% |
| CC(C)(C)c1ccc(NC(=O)c2cnccn2)cc1 | < 70% |
| CCc1ccc(S(=O)(=O)Nc2cc(CN3CCN(CCC(C)C)CC3)ccc2C)cc1 | < 70% |
| Nc1nc(Nc2cc(Cl)cc(Cl)c2)c2[nH]cnc2n1 | < 70% |
| COc1ccc(C2c3ccc4ccccc4c3Oc3ncn(CCCn4ccnc4)c(=N)c32)cc1OC (stereo not drawn) | < 70% |
| Cc1ccccc1-n1c(C)cc(/C=C(\C#N)C(=O)NCC2CCCO2)c1C (stereo not drawn) | < 70% |

| Compound | growth inhibition at single dose |
| --- | --- |
| Cn1ccnc1SCC(=O)Nc1ccc(C(=O)Nc2ncccc2O)cc1 | < 70% |
| CC(=O)C1C2C(=O)N(C(C)(C)C)C(=O)C2C2C=Cc3ccc4cccnc4c3N21 (stereo not drawn) | < 70% |
| Brc1c(-c2ccc3c(c2)OCO3)nc2ncccn12 | < 70% |
| COc1ccccc1CNC(=O)CCn1c(=O)[nH]c2ccsc2c1=O | < 70% |
| CCc1ccc(-n2nnnc2-c2cnc(N)nc2-c2ccccc2)cc1 | < 70% |
| C[C@]12CC[C@H](O)C[C@H]1CCC1C2[C@H](O)C[C@]2(C)[C@@H](C3=CC(=O)OC3)CC[C@]12O (stereo partly drawn) | < 70% |
| S=c1n(CN2CCN(c3ccccc3Cl)CC2)nc(-c2cccs2)n1Cc1ccccc1 | < 70% |
| CN1CCN(c2ncnc3c2[nH]c2ccc(Cl)cc23)CC1 | < 70% |
| CC(C)(C)n1ncc(C(=O)NCCOc2ccccc2)c1C(F)(F)F | < 70% |
| CN1CCN(CCCOc2ncc(Nc3ncc(-c4ccc(C(F)(F)F)c(F)c4)nc3C(N)=O)cn2)CC1 | < 70% |
| CC(C)(C)n1nc(Cc2ccc(F)c(Cl)c2)c2c(N)ncnc21 | < 70% |
| COc1ccc(C(=O)NC(c2ccc(Cl)cc2Cl)c2cc(Cl)c3cccnc3c2O)cc1 (stereo not drawn) | < 70% |
| O=C(C1CCN(c2nnnn2-c2ccccc2)CC1)N1CCc2ccccc2C1 | < 70% |
| CC(=O)NCCCc1ccc(C(=O)COC(=O)c2ccccc2-n2cnnn2)cc1 | < 70% |
| Cc1cc(C)n(-c2ccc(NC(=O)C3(c4ccccc4)CC3)cn2)n1 | < 70% |
| O=C(NCc1ccc(N2CCCC2=O)cc1)c1cccnc1OCC(F)(F)F | < 70% |
| COc1cc(C(=O)Nc2nc3c(cc4c5c(cccc53)CC4)s2)cc(OC)c1OC | < 70% |
| COc1ccc(N(CCc2cccc(C)n2)C(C)=O)cc1 | < 70% |
| CCOc1ccc(Nc2ccnc3cc(Cl)ccc23)cc1 | < 70% |
| N#CC(C(=O)c1cc(S(=O)(=O)N2CCc3ccccc3C2)ccc1Cl)c1ccccn1 (stereo not drawn) | < 70% |
| CCOc1ccc(CCNC(=O)c2cccs2)cc1OCC | < 70% |
| COc1ccc(-c2cncc3ccc(C(=O)NCCCn4ccnc4)nc23)cc1 | < 70% |
| O=C(Nc1ncccc1O)c1ccc(Cn2cccn2)cc1 | < 70% |
| c1ccc(Oc2ccc(-c3cc(N4CCOCC4)[nH]n3)cc2)cc1 | < 70% |

| Compound | growth inhibition at single dose |
| --- | --- |
| CCC(=O)c1cn(S(=O)(=O)c2ccc(C)cc2)c2ccccc12 | < 70% |
| O=C(Nc1nccs1)c1ccc(N2CCCCCC2)nc1 | < 70% |
| CNc1snc(C)c1C(=O)Nc1ccc(OC)c(Cc2ccccc2)c1 | < 70% |
| COCCN1COc2c(cc(Cl)c3cccnc23)C1 | < 70% |
| CCOC(=O)c1[nH]c(C)c(C(=O)CN(C)S(=O)(=O)c2c(C)noc2C)c1C | < 70% |
| CCCCCCCCCCCCCCCCOP(=O)([O-])OCC[N+](C)(C)C | < 70% |
| CC(C)(C)c1nc(-c2ccc(N)cc2)no1 | < 70% |
| N#Cc1nc(Cc2cccc3ccccc23)oc1N1CCN(C(c2ccccc2)c2ccccc2)CC1 | < 70% |
| COc1cccn2c(C(=O)N3CCCCC3)c(C(F)(F)F)nc12 | < 70% |
| COC(=O)CCSc1c2ccc(Cl)cc2nc2ccc(OC)cc12 | < 70% |
| COc1ccc2nc(C)cc(Nc3ccc(Cl)cc3)c2c1 | < 70% |
| CCN(CC)CCNc1ccnc2cc(Cl)ccc12 | < 70% |
| COc1ccc(C(=O)C(CCC(CNC(C)(C)C)C(=O)c2ccc(OC)cc2)CNC(C)(C)C)cc1 (stereo not drawn) | < 70% |
| O=C1c2ccc3c4c(ccc(c24)C(=O)N1CCCCO)C(=O)N(CCCCO)C3=O | < 70% |
| CCCc1c(CC)c(=N)c2ccccc2n1C | < 70% |
| O=C(NC1CCCCC1)C(c1cccs1)N(CCc1ccccc1)C(=O)c1ccco1 (stereo not drawn) | < 70% |
| CC(=O)N(CCN(C(=O)c1ccc(F)cc1)c1ccccc1)c1ccccc1 | < 70% |
| Cc1nc2ccccc2c(O)c1CC=C(Cl)Cl | < 70% |
| COc1ccc(C(C)=O)cc1N1C(=O)C2C(C1=O)C1(c3ccccc3)C(=O)C2(c2ccccc2)C(c2ccc(C)cc2)=C1c1ccc(C)cc1 (stereo not drawn) | < 70% |
| CS(=O)(=O)Cc1nc2ccccc2oc1=O | < 70% |
| O=C1c2ccccc2-c2nnc(-c3ccc(Br)cc3)cc21 | < 70% |
